Results published in patent EP0095295B1, “Cyclic peptide derivatives” (ELI LILLY AND COMPANY, priority 1982, dated 1987).

Assays:
[1] = solubility (listed characteristics); assay type: physicochemical; settings: water
[2] = fermentation medium, pH values above pH 7.2
Excerpt: In stirred fermentors the pH may be controlled by sensor controllers. Where this is impractical, such as in flask fermentors, pH may be controlled by adding 0.1 molar phosphate buffer to the medium prior to addition of the substrate.

acute toxicity in mice = assay type: in vivo; settings: administered intravenously to mice
Description: The acute toxicity of NTrp-p-(n-dodecyloxy)benzoyl-A―21978C, when administered intravenously to mice and expressed as LDso, was 67.5 mg/kg.

## C[C@H](CC(=O)O)[C@@H]1NC(=O)[C@@H](CO)NC(=O)CNC(=O)[C@H](CC(=O)O)NC(=O)[C@@H](C)NC(=O)[C@H](CC(=O)O)NC(=O)[C@H](CCCN)NC(=O)CNC(=O)[C@@H](NC(=O)[C@H](CC(=O)O)NC(=O)[C@H](CC(N)=O)NC(=O)[C@@H](N)Cc2c[nH]c3ccccc23)[C@@H](C)OC(=O)[C@H](CC(=O)c2ccccc2N)NC1=O [A-21978C nucleus]
[1]
  Solubility: soluble in water
[2]
  stability (alkaline hydrolysis): increasingly subject to alkaline hydrolysis

## CCCCCCCCCCCCOc1ccc(C(=O)N[C@@H](Cc2c[nH]c3ccccc23)C(=O)N[C@@H](CC(N)=O)C(=O)N[C@@H](CC(=O)O)C(=O)N[C@@H]2C(=O)NCC(=O)N[C@@H](CCCN)C(=O)N[C@@H](CC(=O)O)C(=O)N[C@H](C)C(=O)N[C@@H](CC(=O)O)C(=O)NCC(=O)N[C@H](CO)C(=O)N[C@@H]([C@H](C)CC(=O)O)C(=O)N[C@@H](CC(=O)c3ccccc3N)C(=O)O[C@@H]2C)cc1 [NTrp-p-(n-dodecyloxy)benzoyl-A―21978C, NTrp-P-(n-dodecyloxy)benzoyl-A-21978C Nucleus]
Acute toxicity in mice
  acute toxicity expressed as LDso: 67.5 mg/kg
